Columns and labels:
[1] = Merck Index, 11th Ed.; cited from earlier work
[2] = Amino acid solubility considerations (estimated concentration v. solubility limit); format: physicochemical; settings: % of solubility limit at 25° C.

SMILES | Solubility limit of free amino acid, 25° C. [1] [mg/mL] | Sterile liquid protein concentration, % of limit [2] [%]
CC[C@H](C)[C@H](N)C(=O)O [Ile, Isoleucine] | 41.2 | 22
CC(C)C[C@H](N)C(=O)O [Leu, Leucine] | 24.26 | 67
N[C@@H](Cc1ccccc1)C(=O)O [Phe, L-phenylalanine] | 29.6 | 27
N[C@@H](Cc1ccc(O)cc1)C(=O)O [Tyr, L-tyrosine] | – | 400
CC(C)[C@H](N)C(=O)O [Val, Valine] | 88.5 | 13

Source: patent US20190014793A1, “METHOD OF PROVIDING NUTRITION TO INFANTS” (ABBOTT LABORATORIES, priority 2011, published 2019)
